Data reported in ChEMBL document CHEMBL5042514, “Picolylamine-functionalized benz[e]indole squaraine dyes: Synthetic approach, characterization and in vitro efficacy as potential anticancer phototherapeutic agents” (Eur J Med Chem, 2022).
Calls of active or inactive are those of the source. The rule behind the calls is not given here.

Key:
[1] = Phototoxicity ratio of IC50 for cytotoxicity against human Caco-2 cells assessed as reduction in cell viability in dark to IC50 for phototoxicity against human Caco-2 cells upon LED light irradiation; type: toxicity, cell-based
HeLa [2] = experiment: Induction of morphological change in human HeLa cells assessed as plasma membrane rupture at 1 uM preincubated for 24 hrs followed by 7 mins of LED light irradiation and measured upto 48 hrs by microscopic analysis; type: functional; details: time min <=4327
HeLa [3] = experiment: Induction of cell cycle arrest in human HeLa cells assessed as accumulation in G0/G1 phase at 1 uM by PI staining based flow cytometry analysis (reference value: 67.03 %); type: functional
[4] = Selectivity ratio of IC50 for phototoxicity against human NHDF cells upon LED light irradiation to IC50 for phototoxicity against human MCF7 cells upon LED light irradiation; type: toxicity, cell-based; details: NHDF cells versus MCF7 cells, read-out: Ratio IC50
HeLa [5] = experiment: Induction of morphological change in human HeLa cells assessed as reduction in adhesion at 0.25 uM preincubated for 24 hrs followed by 7 mins of LED light irradiation and measured upto 48 hrs by microscopic analysis; type: functional, cell-based; details: time min <=4327
HeLa [6] = experiment: Induction of cell cycle arrest in human HeLa cells assessed as accumulation in S phase at 0.24 uM with red light radiation for 7 mins by PI staining based flow cytometry analysis (reference value: 32.09 %); type: functional
[7] = Drug localization in lysosome of human HeLa cells at 1 uM incubated for 24 hrs by Green Fluorescent Protein based confocal laser scanning microscopy analysis; type: ADME, subcellular
HeLa [8] = experiment: Induction of cell cycle arrest in human HeLa cells assessed as accumulation in S phase at 0.24 uM by PI staining based flow cytometry analysis (reference value: 32.14 %); type: functional
[9] = Phototoxicity ratio of IC50 for cytotoxicity against human HeLa cells assessed as reduction in cell viability in dark to IC50 for phototoxicity against human HeLa cells upon LED light irradiation; type: toxicity, cell-based
HeLa [10] = experiment: Induction of apoptosis in human HeLa cells at 0.24 uM preincubated for 24 hrs followed by 7 mins LED light irradiation and measured after 24 hrs by PI staining based flow cytometry analysis; type: functional; details: time 2887 min, 48.12 h
[11] = Phototoxicity against human NHDF cells assessed as reduction in cell viability preincubated for 24 hrs followed by 7 mins of LED light irradiation by MTT assay; type: toxicity, cell-based
HeLa [12] = experiment: Induction of cell cycle arrest in human HeLa cells assessed as accumulation in G2/M phase at 1 uM by PI staining based flow cytometry analysis (reference value: 4.79 %); type: functional
HeLa [13] = experiment: Induction of morphological change in human HeLa cells assessed as cell shrinkage at 0.25 uM preincubated for 24 hrs followed by 7 mins of LED light irradiation and measured upto 48 hrs by microscopic analysis; type: functional, cell-based; details: time min <=4327
[14] = Dark toxicity against human NHDF cells assessed as reduction in cell viability incubated for 24 hrs by MTT assay; type: cell-based
[15] = Selectivity ratio of IC50 for phototoxicity against human NHDF cells upon LED light irradiation to IC50 for phototoxicity against human HeLa cells upon LED light irradiation; type: toxicity, cell-based; details: NHDF cells versus HeLa cells, read-out: Ratio IC50
[16] = Phototoxicity ratio of IC50 for cytotoxicity against human NHDF cells assessed as reduction in cell viability in dark to IC50 for phototoxicity against human NHDF cells upon LED light irradiation; type: toxicity, cell-based; details: read-out: Ratio IC50
[17] = Drug localization in mitochondria of human HeLa cells at 1 uM incubated for 24 hrs by Rhodamine 123 based confocal laser scanning microscopy analysis; type: ADME
HeLa [18] = experiment: Induction of cell cycle arrest in human HeLa cells assessed as accumulation in G2/M phase at 0.24 uM with red light radiation for 7 mins by PI staining based flow cytometry analysis (reference value: 4.73 %); type: functional
[19] = Dark toxicity against human Caco-2 cells assessed as reduction in cell viability incubated for 24 hrs by MTT assay; type: cell-based
[20] = Phototoxicity against human PC-3 cells assessed as reduction in cell viability preincubated for 24 hrs followed by 7 mins of LED light irradiation by MTT assay; type: toxicity, cell-based; details: PC-3, light or radiation study
HeLa [21] = experiment: Induction of cell cycle arrest in human HeLa cells assessed as accumulation in S phase at 1 uM by PI staining based flow cytometry analysis (reference value: 32.14 %); type: functional
HeLa [22] = experiment: Induction of cell cycle arrest in human HeLa cells assessed as accumulation in G0/G1 phase at 0.24 uM with red light radiation for 7 mins by PI staining based flow cytometry analysis (reference value: 63.18 %); type: functional
[23] = Phototoxicity against human Caco-2 cells assessed as reduction in cell viability preincubated for 24 hrs followed by 7 mins of LED light irradiation by MTT assay; type: toxicity, cell-based; details: Caco-2, light or radiation study
[24] = Dark toxicity against human PC-3 cells assessed as reduction in cell viability incubated for 24 hrs by MTT assay; type: cell-based
[25] = Phototoxicity against human HeLa cells assessed as reduction in cell viability preincubated for 24 hrs followed by 7 mins of LED light irradiation by MTT assay; type: toxicity, cell-based; details: light or radiation study
[26] = Phototoxicity against human MCF7 cells assessed as reduction in cell viability preincubated for 24 hrs followed by 7 mins of LED light irradiation by MTT assay; type: toxicity, cell-based; details: MCF7, light or radiation study
HeLa [27] = experiment: Induction of cell cycle arrest in human HeLa cells assessed as accumulation in G0/G1 phase at 0.24 uM by PI staining based flow cytometry analysis (reference value: 67.03 %); type: functional
HeLa [28] = experiment: Induction of morphological change in human HeLa cells assessed as rounded cell morphology at 0.25 uM preincubated for 24 hrs followed by 7 mins of LED light irradiation and measured upto 48 hrs by microscopic analysis; type: functional, cell-based; details: time min <=4327
HeLa [29] = experiment: Induction of apoptosis in human HeLa cells assessed as increase in DNA cleavage at 1 uM preincubated for 24 hrs followed by 7 mins LED light irradiation and measured after 24 hrs by PI staining based flow cytometry analysis; type: functional; details: time 2887 min, 48.12 h
[30] = Selectivity ratio of IC50 for phototoxicity against human NHDF cells upon LED light irradiation to IC50 for phototoxicity against human PC-3 cells upon LED light irradiation; type: toxicity, cell-based; details: NHDF cells versus PC-3 cells, read-out: Ratio IC50
[31] = Phototoxicity ratio of IC50 for cytotoxicity against human PC-3 cells assessed as reduction in cell viability in dark to IC50 for phototoxicity against human PC-3 cells upon LED light irradiation; type: toxicity, cell-based
[32] = Dark toxicity against human HeLa cells assessed as reduction in cell viability incubated for 24 hrs by MTT assay; type: cell-based
Albumin = Albumin (Homo sapiens, UniProt P02768); experiment: Binding affinity to human serum albumin assessed as binding constant by fluorescence based assay
Albumin, sequence (P02768 whole entry): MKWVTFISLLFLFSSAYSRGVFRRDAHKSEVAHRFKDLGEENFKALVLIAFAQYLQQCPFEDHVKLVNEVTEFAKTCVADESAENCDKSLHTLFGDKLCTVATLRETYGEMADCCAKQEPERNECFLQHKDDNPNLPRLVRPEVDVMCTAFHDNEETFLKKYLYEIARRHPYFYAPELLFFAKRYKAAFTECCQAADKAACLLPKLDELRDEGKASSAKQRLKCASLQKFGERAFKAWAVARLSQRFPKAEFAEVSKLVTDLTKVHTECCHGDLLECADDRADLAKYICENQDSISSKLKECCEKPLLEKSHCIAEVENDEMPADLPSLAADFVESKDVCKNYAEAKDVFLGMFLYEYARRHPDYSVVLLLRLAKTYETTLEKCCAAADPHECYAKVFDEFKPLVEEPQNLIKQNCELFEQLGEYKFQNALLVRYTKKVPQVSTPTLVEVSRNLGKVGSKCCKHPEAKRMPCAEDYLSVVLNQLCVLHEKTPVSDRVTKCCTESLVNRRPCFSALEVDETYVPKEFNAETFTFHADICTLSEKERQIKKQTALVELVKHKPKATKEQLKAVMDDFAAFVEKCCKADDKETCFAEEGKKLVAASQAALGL

[33] = Phototoxicity ratio of IC50 for cytotoxicity against human MCF7 cells assessed as reduction in cell viability in dark to IC50 for phototoxicity against human MCF7 cells upon LED light irradiation; type: toxicity, cell-based
HeLa [34] = experiment: Induction of cell cycle arrest in human HeLa cells assessed as accumulation in G2/M phase at 0.24 uM by PI staining based flow cytometry analysis (reference value: 4.79 %); type: functional
HeLa [35] = experiment: Induction of morphological change in human HeLa cells assessed as intracellular space dilation at 1 uM preincubated for 24 hrs followed by 7 mins of LED light irradiation and measured upto 48 hrs by microscopic analysis; type: functional, cell-based; details: time min <=4327
[36] = Dark toxicity against human MCF7 cells assessed as reduction in cell viability incubated for 24 hrs by MTT assay; type: cell-based
[37] = Selectivity ratio of IC50 for phototoxicity against human NHDF cells upon LED light irradiation to IC50 for phototoxicity against human Caco-2 cells upon LED light irradiation; type: toxicity, cell-based; details: NHDF cells versus Caco-2 cells, read-out: Ratio IC50
[38] = Genotoxicity in human HeLa cells assessed as genetic damage index at 1 uM measured after 24 hrs in absence of light by alkali comet assay; type: toxicity, cell-based

## CCN1/C(=C/C2=C(NCc3ccccn3)C(=C/C3=[N+](CC)c4ccc5ccccc5c4C3(C)C)/C2=O)C(C)(C)c2c1ccc1ccccc21.[I-]
[1]
  Ratio IC50: 21.9
HeLa [2]
  Activity: Active
HeLa [3]
  Activity: 68.34%
[4]
  selectivity ratio: 1.59
HeLa [5]
  Activity: Active
HeLa [6]
  Activity: 16.91%
[7]
  Drug uptake: Not Active
HeLa [8]
  Activity: 22.04%
[9]
  Ratio IC50: 9.1
HeLa [10]
  Activity: 2%
[11]
  IC50 at 24 h: 263 nM
HeLa [12]
  Activity: 4.98%
HeLa [13]
  Activity: Active
[14]
  IC50 at 24 h: 2130 nM
[15]
  selectivity ratio: 1.1
[16]
  selectivity ratio: 8.1
[17]
  Drug uptake: Active
HeLa [18]
  Activity: 15.95%
[19]
  IC50 at 24 h: 2020 nM
[20]
  IC50: 87 nM
HeLa [21]
  Activity: 26.68%
HeLa [22]
  Activity: 67.14%
[23]
  IC50: 92 nM
[24]
  IC50 at 24 h: 2070 nM
[25]
  IC50: 240 nM
[26]
  IC50: 165 nM
HeLa [27]
  Activity: 73.97%
HeLa [28]
  Activity: Active
HeLa [29]
  Activity: 68%
[30]
  selectivity ratio: 3.02
[31]
  Ratio IC50: 23.8
[32]
  IC50 at 24 h: 2180 nM
Albumin
  Kb: 6.93 10^5/M
[33]
  Ratio IC50: 9.8
HeLa [34]
  Activity: 4%
HeLa [35]
  Activity: Active
[36]
  IC50 at 24 h: 1610 nM
[37]
  selectivity ratio: 2.86
[38]
  Activity: 24 a.u.
